22 compounds from PubChem BioAssay (NCI) can be followed below.

SMILES strings stand for the structures. Values joined by “and” are separate entries in the source; they are usually repeats but may differ in a detail not shown here. Equal values may be shown once.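 Following 48 hours of exposure in 96-well plates, responses at five concentrations were used to interpolate endpoints linearly. GI50 is the concentration that inhibits growth by half. TGI is the concentration that stops growth completely.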 Some results are limits rather than exact numbers.

The first assay has as its system KM12 colon. Put plainly: DTP human tumour cell line panel, 48 h.
As to `COc1ccc2c(c1)N(CCO)C1=C(C(=O)OC1)C2c1cccc(F)c1` (stereo not given), the concentration for 50% growth inhibition (GI50) was 0.255 µM and the TGI is over 50 µM.
`C=CC(=O)Nc1cccc(Oc2nc(Nc3ccc(N4CCN(C)CC4)cc3)nc3ccsc23)c1`: the GI50 was 3.36 µM and 2.49 µM; the concentration for total growth inhibition (TGI) was > 10 µM and 6.77 µM.
As to `OCc1ccc(N2CCCC2c2ccccc2)cc1Cl` (stereo not given), the GI50 was 4.17 µM and the concentration for total growth inhibition (TGI) was 19.4 µM.
`COC1C=COC2(C)Oc3c(C)c(O)c4c(c3C2=O)/C(=N/C2CCC(O)OC2C)C=C(NC(=O)/C(C)=C\C(=O)C2CC2C(O)C(C)C(O)C(C)C(OC(C)=O)C1C)C4=O` (stereo not given): the TGI stood at 9.48 µM. That is a single-digit micromolar value.
As for `CC(=O)/C=C/c1cn(C(=O)OC(C)(C)C)c2ccc(Br)cc12`, the GI50 was 13.8 µM and the TGI was determined as 29.1 µM.
Turning to `CCOc1ccccc1C(=O)N1CCN(c2cc(Cl)cc(Cl)c2)CC1`, the concentration for 50% growth inhibition (GI50) is 0.0361 µM and the TGI amounted to 13.6 µM.
`NC(CSC1c2ccccc2-c2ccccc21)C(=O)O` (stereo not given) returned a TGI of over 100 µM.
In the case of `COc1cc2c(cc1C1COc3cc4occc4cc3C1=O)OCO2` (stereo not given), the TGI was over 100 µM.
On to `Cc1cc(S(=O)(=O)/N=C(/N)Nc2ccccc2O)c(SCc2ccccc2)cc1Cl`, for which the GI50 was 12.6 µM and the TGI came to 32.5 µM.
For the compound `O=C(NC1CCCCC1)NS(=O)(=O)c1ccc2c(c1)CCC2`, the TGI was over 100 µM.
For `O=C1CCC(N2Cc3cc(CNC(=O)C(F)(F)c4ccc(Cl)cc4)ccc3C2=O)C(=O)N1` (stereo not given), the GI50 was 67.1 µM and the total growth inhibition concentration (TGI) is over 100 µM.
Consider `O=C(O)CN1CCN(CC(=O)O)CC(=O)[O][Hg][O]C(=O)C1`, for which the GI50 is over 100 µM and the TGI was over 100 µM.
On to `O=C1/C(=C/c2ccccc2[N+](=O)[O-])Cc2ccccc21`, for which the GI50 is 3.97 µM and the TGI worked out at 15.7 µM.
In the case of `O=C(OCc1ccc2ccccc2n1)c1cn(C2CC2)c2cc(N3CCN(Cc4ccc5ccccc5n4)CC3)c(F)cc2c1=O`, the GI50 is 41.6 µM and the total growth inhibition concentration (TGI) is over 100 µM.
In the case of `O=C(O)c1ccc(C(=O)c2ccccc2)c(C(=O)O)c1`, the TGI was over 100 µM.
As for `Cc1ccc(/C=N\NC(=O)c2[nH]c3ccc(F)cc3c2-c2ccccc2)cc1`, the concentration for 50% growth inhibition (GI50) is 0.0282 µM and the TGI was 0.898 µM.

The subject of the next assay is UACC-62 melanoma. Put plainly: DTP human tumour cell line panel, 48 h.
On to `CCC(=O)C12OC3OC(C)(C)OC3C1OC(C)(C)O2` (stereo not given), for which the TGI was over 100 µM.
On to `COc1cc(C(=O)C/C(CCC(=O)Nc2ccccc2[N+](=O)[O-])=N\NC(N)=O)ccc1O`, for which the TGI is over 100 µM.
As to `COc1ccc(-c2cc(Cc3cccs3)c(=O)[nH]n2)cc1`, the TGI is over 100 µM.
Regarding `O=C1NC(=O)C(N2C(=O)c3ccccc3C2=O)CC1O` (stereo not given), the GI50 is over 100 µM and the TGI was over 100 µM.
On to `COC(=O)C1(C)CCc2c(OC)ccc(OC)c2C1=O` (stereo not given), for which the TGI was over 100 µM.
`COC(=O)C1CC2CC(=NNC(N)=O)CC2C1` (stereo not given) registered a TGI of over 100 µM.
In the case of `COc1ccc2c(c1)N(CCO)C1=C(C(=O)OC1)C2c1cccc(F)c1` (stereo not given), the 50% growth inhibitory concentration (GI50) was 0.203 µM and the concentration for total growth inhibition (TGI) was over 50 µM.
Turning to `C=CC(=O)Nc1cccc(Oc2nc(Nc3ccc(N4CCN(C)CC4)cc3)nc3ccsc23)c1`, the GI50 is 1.59 µM and 1.74 µM; the total growth inhibition concentration (TGI) is 3.17 µM and 3.67 µM.
Turning to `OCc1ccc(N2CCCC2c2ccccc2)cc1Cl` (stereo not given), the GI50 is 0.665 µM and the total growth inhibition concentration (TGI) amounted to 4.01 µM.
Regarding `COC1C=COC2(C)Oc3c(C)c(O)c4c(c3C2=O)/C(=N/C2CCC(O)OC2C)C=C(NC(=O)/C(C)=C\C(=O)C2CC2C(O)C(C)C(O)C(C)C(OC(C)=O)C1C)C4=O` (stereo not given), the TGI turned out to be 4.3 µM. In other words, the single-digit micromolar range.
Take `CC(=O)/C=C/c1cn(C(=O)OC(C)(C)C)c2ccc(Br)cc12`: the GI50 was 20.6 µM and the total growth inhibition concentration (TGI) was over 85.7 µM.
`CCOc1ccccc1C(=O)N1CCN(c2cc(Cl)cc(Cl)c2)CC1`: the concentration for 50% growth inhibition (GI50) is 0.0203 µM and the total growth inhibition concentration (TGI) is 16 µM.
Take `NC(CSC1c2ccccc2-c2ccccc21)C(=O)O` (stereo not given): the TGI is over 100 µM.
In turn, `COc1cc2c(cc1C1COc3cc4occc4cc3C1=O)OCO2` (stereo not given) came in with a total growth inhibition concentration (TGI) of over 100 µM.
With `Cc1cc(S(=O)(=O)/N=C(/N)Nc2ccccc2O)c(SCc2ccccc2)cc1Cl`, the GI50 was 9.6 µM and the TGI is 22.7 µM.
`O=C(NC1CCCCC1)NS(=O)(=O)c1ccc2c(c1)CCC2` registered a concentration for total growth inhibition (TGI) of over 100 µM.
Consider `O=C1CCC(N2Cc3cc(CNC(=O)C(F)(F)c4ccc(Cl)cc4)ccc3C2=O)C(=O)N1` (stereo not given), for which the GI50 was over 100 µM and the TGI is over 100 µM.
`O=C(O)CN1CCN(CC(=O)O)CC(=O)[O][Hg][O]C(=O)C1`: the GI50 was 18.3 µM and the TGI worked out at 32.4 µM.
Turning to `O=C1/C(=C/c2ccccc2[N+](=O)[O-])Cc2ccccc21`, the GI50 is 1.64 µM and the TGI turned out to be 3.38 µM.
With `O=C(OCc1ccc2ccccc2n1)c1cn(C2CC2)c2cc(N3CCN(Cc4ccc5ccccc5n4)CC3)c(F)cc2c1=O`, the GI50 was 46.1 µM and the concentration for total growth inhibition (TGI) is over 100 µM.
For the compound `O=C(O)c1ccc(C(=O)c2ccccc2)c(C(=O)O)c1`, the TGI was over 100 µM.
Regarding `Cc1ccc(/C=N\NC(=O)c2[nH]c3ccc(F)cc3c2-c2ccccc2)cc1`, the concentration for 50% growth inhibition (GI50) is 0.0516 µM and the TGI was over 58.6 µM.

A further assay has as its system UACC-257 melanoma. Description: DTP human tumour cell line panel, 48 h.
`CCC(=O)C12OC3OC(C)(C)OC3C1OC(C)(C)O2` (stereo not given) yielded a concentration for total growth inhibition (TGI) of over 100 µM.
On the same count and under the same terms, the value for `COc1cc(C(=O)C/C(CCC(=O)Nc2ccccc2[N+](=O)[O-])=N\NC(N)=O)ccc1O` was over 100 µM; that for `COc1ccc(-c2cc(Cc3cccs3)c(=O)[nH]n2)cc1` was over 100 µM.
On to `O=C1NC(=O)C(N2C(=O)c3ccccc3C2=O)CC1O` (stereo not given), for which the GI50 was over 100 µM and the TGI is over 100 µM.
Take `COC(=O)C1(C)CCc2c(OC)ccc(OC)c2C1=O` (stereo not given): the total growth inhibition concentration (TGI) is over 100 µM.
With `COC(=O)C1CC2CC(=NNC(N)=O)CC2C1` (stereo not given), the total growth inhibition concentration (TGI) is over 100 µM.
For the compound `COc1ccc2c(c1)N(CCO)C1=C(C(=O)OC1)C2c1cccc(F)c1` (stereo not given), the GI50 was over 50 µM and the concentration for total growth inhibition (TGI) was over 50 µM.

In general, GI50 refers to the concentration that inhibits growth by half. Usually TGI stands for the concentration at which net growth stops. A low value points to greater sensitivity of the cells.
